The target of assay [1] is T1, Class 1 histone deacetylase (Homo sapiens, UniProt Q13547+O15379+Q92769+Q9BY41).
Description: Inhibition of class 1 HDAC in human Cal27CisR cells assessed as potentiation of cisplatin-induced cytotoxicity by measuring combination index at 0.25 uM in presence of 100 uM cisplatin by MTT assay based Chou-Talalay analysis
In assay [2] the target is T1, Class 1 histone deacetylase. As to conditions: CAL-27.
Description: Inhibition of class 1 HDAC in human CAL27 cells assessed as potentiation of cisplatin-induced cytotoxicity by measuring combination index at 0.1 uM in presence of 1 uM cisplatin by MTT assay based Chou-Talalay analysis
In assay [3] the test system is CAL-27. Nature of the assay: Induction of apoptosis in human CAL27 cells assessed as accumulation at sub-G1 phase at 0.5 uM after 48 hrs by propidium iodide staining based flow cytometry relative to control. It counts as functional. (In general: In flow cytometry, cells or beads pass a laser one at a time.)
Assay [4] concerns the target T1, Class 1 histone deacetylase. As to conditions: CAL-27. This is another data set of the same source.
Description: Inhibition of class 1 HDAC in human CAL27 cells assessed as potentiation of cisplatin-induced cytotoxicity by measuring combination index at 0.25 uM in presence of 0.32 uM cisplatin by MTT assay based Chou-Talalay analysis
Assay [5] has the same target. As to conditions: CAL-27. This is another data set of the same source.
Description: Inhibition of class 1 HDAC in human CAL27 cells assessed as potentiation of cisplatin-induced cytotoxicity by measuring combination index at 0.25 uM in presence of 10 uM cisplatin by MTT assay based Chou-Talalay analysis
Assay [6] is described as follows: Induction of apoptosis in human Cal27CisR cells assessed as accumulation at sub-G1 phase at 0.5 uM after 48 hrs by propidium iodide staining based flow cytometry relative to control. The class given is functional.
The target in assay [7] is T1, Class 1 histone deacetylase. This is another data set of the same source.
Assay [8] in a line: Induction of apoptosis in human Cal27CisR cells assessed as caspase-3/7 activation at 0.5 uM measured after 48 hrs by CellEvent caspase 3/7 green detection reagent/Hoechst 33342 staining based imaging analysis relative to control. The class given is functional.
Assay [9] deals with T1, Class 1 histone deacetylase. This is another data set of the same source.
Description: Inhibition of class 1 HDAC in human Cal27CisR cells assessed as potentiation of cisplatin-induced cytotoxicity by measuring combination index at 0.25 uM in presence of 1 uM cisplatin by MTT assay based Chou-Talalay analysis
For assay [10], the species on record is Homo sapiens. The experiment in a line: Induction of apoptosis in human Cal27CisR cells assessed as accumulation at sub-G1 phase at 5 uM after 48 hrs by propidium iodide staining based flow cytometry. It counts as functional, cell-based.
Assay [11] addresses T1, Class 1 histone deacetylase. Nature of the assay: Inhibition of class 1 HDAC in human CAL27 cells assessed as potentiation of cisplatin-induced cytotoxicity by measuring combination index at 5 uM in presence of 1 uM cisplatin by MTT assay based Chou-Talalay analysis. The class given is cell-based. The note with it: CAL-27. Background: Tetrazolium dyes change colour on reduction, which living cells bring about.

Assay [12] shares this target. The experiment in a line: Inhibition of class 1 HDAC in human CAL27 cells assessed as potentiation of cisplatin-induced apoptosis assessed as increase in caspase-3/7 activation at 5 uM preincubated for 48 hrs followed by cisplatin addition and measured after 24 hrs by CellEvent caspase 3/7 green detection reagent/Hoechst 33342 staining based imaging analysis. The class given is cell-based. The note with it: CAL-27.

The target is the same in assay [13]. The experiment in a line: Inhibition of class 1 HDAC in human Cal27CisR cells assessed as potentiation of cisplatin-induced apoptosis assessed as increase in caspase-3/7 activation at 5 uM preincubated for 48 hrs followed by cisplatin addition and measured after 24 hrs by CellEvent caspase 3/7 green detection reagent/Hoechst 33342 staining based imaging analysis. The class given is cell-based.

Assay [14] has the same target. Nature of the assay: Inhibition of class 1 HDAC in human CAL27 cells assessed as potentiation of cisplatin-induced cytotoxicity by measuring fold reduction in cisplatin IC50 at 5 uM preincubated for 48 hrs followed by cisplatin addition and measured after 72 hrs by MTT assay relative to cisplatin IC50. The note with it: CAL-27. It counts as cell-based.
Assay [15] has the same target. The experiment in a line: Inhibition of class 1 HDAC in human CAL27 cells assessed as potentiation of cisplatin-induced cytotoxicity by measuring combination index at 5 uM in presence of […] cisplatin by MTT assay based Chou-Talalay analysis. As to conditions: CAL-27. It counts as cell-based.
The target is the same in assay [16]. The experiment in a line: Inhibition of class 1 HDAC in human Cal27CisR cells assessed as potentiation of cisplatin-induced cytotoxicity by measuring combination index at 5 uM in presence of 1 uM cisplatin by MTT assay based Chou-Talalay analysis. It counts as cell-based.
For assay [17] the target is unchanged. Nature of the assay: Inhibition of class 1 HDAC in human CAL27 cells assessed as potentiation of cisplatin-induced apoptosis assessed as increase in caspase-3/7 activation at 5 uM preincubated for 48 hrs followed by cisplatin addition and measured after 24 hrs in presence of pan caspase inhibitor QVD by CellEvent caspase 3/7 green detection reagent/Hoechst 33342 staining based imaging analysis. The class given is cell-based. The note with it: CAL-27.

The target is the same in assay [18]. The experiment in a line: Inhibition of class 1 HDAC in human Cal27CisR cells assessed as increase in histone H3 acetylation at 5 uM measured after 24 hrs by immunoblot analysis. The class given is cell-based. For orientation: Immunoblotting shows a protein as a band on a membrane.
Assay [19] has the same target. Nature of the assay: Inhibition of class 1 HDAC in human CAL27 cells assessed as potentiation of cisplatin-induced cytotoxicity by measuring combination index at 5 uM in presence of 0.1 uM cisplatin by MTT assay based Chou-Talalay analysis. The class given is cell-based. The note with it: CAL-27.
For assay [20] the target is unchanged. Nature of the assay: Inhibition of class 1 HDAC in human CAL27 cells assessed as potentiation of cisplatin-induced apoptosis assessed as increase in caspase-3/7 activation at […] preincubated for 48 hrs followed by cisplatin addition and measured after 24 hrs in presence of pan caspase inhibitor QVD by CellEvent caspase 3/7 green detection reagent/Hoechst 33342 staining based imaging analysis. It counts as cell-based. As to conditions: CAL-27.

A short description of assay [21]: Induction of apoptosis in human Cal27CisR cells assessed as caspase-3/7 activation at […] measured after 48 hrs by CellEvent caspase 3/7 green detection reagent/Hoechst 33342 staining based imaging analysis relative to control. The class given is functional.
Assay [22] deals with T1, Class 1 histone deacetylase. Nature of the assay: Inhibition of class 1 HDAC in human CAL27 cells assessed as potentiation of cisplatin-induced cytotoxicity by measuring fold reduction in cisplatin IC50 at […] preincubated for 48 hrs followed by cisplatin addition and measured after 72 hrs by MTT assay relative to cisplatin IC50. It counts as cell-based. The note with it: CAL-27.

Assay [23] shares this target. The experiment in a line: Inhibition of class 1 HDAC in human Cal27CisR cells assessed as potentiation of cisplatin-induced cytotoxicity by measuring fold reduction in cisplatin IC50 at […] preincubated for 48 hrs followed by cisplatin addition and measured after 72 hrs by MTT assay relative to cisplatin IC50. The class given is cell-based.
In assay [24] the test system is CAL-27. The experiment in a line: Induction of apoptosis in human CAL27 cells assessed as accumulation at sub-G1 phase at […] after 48 hrs by propidium iodide staining based flow cytometry relative to control. It counts as functional.
The target of assay [25] is T1, Class 1 histone deacetylase. The experiment in a line: Inhibition of class 1 HDAC in human CAL27 cells assessed as potentiation of cisplatin-induced apoptosis assessed as increase in caspase-3/7 activation at […] preincubated for 48 hrs followed by cisplatin addition and measured after 24 hrs by CellEvent caspase 3/7 green detection reagent/Hoechst 33342 staining based imaging analysis. The class given is cell-based. The note with it: CAL-27.

The target is the same in assay [26]. The experiment in a line: Inhibition of class 1 HDAC in human CAL27 cells assessed as increase in histone H3 acetylation at […] measured after 24 hrs by immunoblot analysis. It counts as cell-based. As to conditions: CAL-27.
The target in assay [27] is Histone deacetylase 2 (Homo sapiens, UniProt Q92769). The experiment in a line: Inhibition of recombinant human full length C-terminal FLAG-tagged HDAC2 expressed in baculovirus infected Sf9 insect cells at 3.33 uM using Boc-Lys(epsilon-acetyl)-AMC as substrate incubated for 90 mins by fluorescence assay relative to control.
Assay [28] concerns the target T1, Class 1 histone deacetylase. The experiment in a line: Inhibition of class 1 HDAC in human Cal27CisR cells assessed as potentiation of cisplatin-induced apoptosis assessed as increase in caspase-3/7 activation at […] preincubated for 48 hrs followed by cisplatin addition and measured after 24 hrs by CellEvent caspase 3/7 green detection reagent/Hoechst 33342 staining based imaging analysis. The class given is cell-based.

The structures appear in SMILES notation. Calls of active or inactive are those of the source. The calls are words filed in the database; no cut-off is given here.

T1 sequence (O15379 whole entry, looked up): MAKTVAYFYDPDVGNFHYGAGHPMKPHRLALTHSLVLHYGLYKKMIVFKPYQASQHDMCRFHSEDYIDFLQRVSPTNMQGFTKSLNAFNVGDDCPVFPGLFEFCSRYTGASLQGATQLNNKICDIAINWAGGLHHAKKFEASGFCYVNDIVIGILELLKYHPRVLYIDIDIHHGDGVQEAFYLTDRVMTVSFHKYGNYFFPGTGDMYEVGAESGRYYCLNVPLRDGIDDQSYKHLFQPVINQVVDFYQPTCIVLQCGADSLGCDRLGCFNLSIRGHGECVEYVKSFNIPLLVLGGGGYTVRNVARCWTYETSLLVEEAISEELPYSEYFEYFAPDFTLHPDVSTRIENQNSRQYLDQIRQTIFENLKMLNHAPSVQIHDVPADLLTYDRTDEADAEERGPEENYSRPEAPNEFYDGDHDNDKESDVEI
T1 sequence (Q13547 whole entry, looked up): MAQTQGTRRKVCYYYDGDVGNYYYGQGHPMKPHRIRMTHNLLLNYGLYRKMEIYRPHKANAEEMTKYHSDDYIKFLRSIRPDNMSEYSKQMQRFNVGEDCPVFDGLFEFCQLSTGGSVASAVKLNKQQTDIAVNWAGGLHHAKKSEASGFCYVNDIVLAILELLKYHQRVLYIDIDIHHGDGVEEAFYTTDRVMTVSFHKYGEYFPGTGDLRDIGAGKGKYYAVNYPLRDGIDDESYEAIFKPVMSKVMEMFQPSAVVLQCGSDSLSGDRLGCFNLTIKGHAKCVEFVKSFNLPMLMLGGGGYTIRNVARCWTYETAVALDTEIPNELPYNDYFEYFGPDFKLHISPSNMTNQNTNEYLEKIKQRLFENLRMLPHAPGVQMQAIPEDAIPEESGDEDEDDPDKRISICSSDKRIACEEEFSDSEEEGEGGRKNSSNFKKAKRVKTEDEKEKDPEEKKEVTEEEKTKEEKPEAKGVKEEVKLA
T1 sequence (Q92769 whole entry, looked up): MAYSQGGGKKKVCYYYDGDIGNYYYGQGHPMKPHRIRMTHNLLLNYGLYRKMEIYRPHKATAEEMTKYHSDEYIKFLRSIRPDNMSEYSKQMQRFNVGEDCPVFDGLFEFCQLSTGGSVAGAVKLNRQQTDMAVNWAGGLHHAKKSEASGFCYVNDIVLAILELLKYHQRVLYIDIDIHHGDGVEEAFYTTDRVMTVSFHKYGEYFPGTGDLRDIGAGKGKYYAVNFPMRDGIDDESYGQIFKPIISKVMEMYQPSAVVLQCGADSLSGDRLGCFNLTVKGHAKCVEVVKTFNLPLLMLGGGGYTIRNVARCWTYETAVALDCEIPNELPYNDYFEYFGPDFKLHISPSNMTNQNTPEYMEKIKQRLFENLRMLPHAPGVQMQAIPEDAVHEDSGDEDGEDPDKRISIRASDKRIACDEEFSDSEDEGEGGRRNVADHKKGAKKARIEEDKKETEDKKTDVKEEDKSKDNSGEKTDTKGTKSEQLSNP
T1 sequence (Q9BY41 whole entry, looked up): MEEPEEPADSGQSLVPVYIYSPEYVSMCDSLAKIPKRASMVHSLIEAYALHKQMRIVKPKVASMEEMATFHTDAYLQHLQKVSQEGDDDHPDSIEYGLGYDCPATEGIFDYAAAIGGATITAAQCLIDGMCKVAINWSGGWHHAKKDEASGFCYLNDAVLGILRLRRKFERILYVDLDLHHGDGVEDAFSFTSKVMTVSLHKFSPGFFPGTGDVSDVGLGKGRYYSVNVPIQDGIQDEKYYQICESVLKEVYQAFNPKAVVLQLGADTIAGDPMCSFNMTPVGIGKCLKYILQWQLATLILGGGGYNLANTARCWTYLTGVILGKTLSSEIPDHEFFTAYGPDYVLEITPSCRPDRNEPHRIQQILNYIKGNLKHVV
Histone deacetylase 2, sequence (Q92769 whole entry): as the sequence (Q92769 whole entry, looked up) above

For the compound `CN(C)c1ccc(C(=O)N(CC(=O)NCc2ccccc2)Cc2ccc(C(=O)Nc3ccccc3N)cc2)cc1`, the CI in assay [1] was 0.03; in assay [2] it was 0.91; in assay [4] it was 0.39; in assay [5], 0.02; in assay [7] it was below 0.2; in assay [9], 0.76. Further, the Activity in assay [3] is recorded as 9.42%; in assay [6], 6.15%; in [8], 8.16%.
For the compound `Cc1cc(C)cc(C(=O)N(CCCCCC(=O)Nc2cc(-c3ccccc3)ccc2N)CC(=O)NCc2ccccc2)c1`, the outcome in assay [10] was inactive. For the same compound, the CI in assay [11] was 0.76; in assay [15] it was below 0.2; in assay [16], below 0.2; in [19], below 0.2. For the same compound, the inhibition result in assay [12], in assay [13] and in assay [18] was “Active” each time. In assay [14], the Ratio IC50 amounted to 5.26. Besides, the inhibition (usually the relative decrease from the control value, in per cent) in [17] is “inactive”.
Consider `Cc1cc(C)cc(C(=O)N(CC(=O)NCc2ccccc2)Cc2ccc(C(=O)Nc3cc(-c4ccccc4)ccc3N)cc2)c1`, for which the inhibition entry in assay [20] was “inactive”. Besides, the Activity worked out at 5.96% in assay [21] and 6.27% in assay [24]. Besides, the Ratio IC50 is 5.26 in [22] and 5.27 in [23]. For the same compound, the inhibition result in assay [25], in [26] and in [28] was “Active” in each case. The inhibition in [27] is 34%.

The values above are taken from ChEMBL document CHEMBL4334526, “Synthesis of Peptoid-Based Class I-Selective Histone Deacetylase Inhibitors with Chemosensitizing Properties” (J Med Chem, 2019).
